According to paper PMC7854383, “Cellular Uptake of Psychostimulants – Are High- and Low-Affinity Organic Cation Transporters Drug Traffickers?” (Frontiers in Pharmacology, 2021):
Numbering of substitutions follows the chain as printed. Several values for one entry are separate records, joined by “and”; a condition that tells them apart may be missing. Equal entries are not always repeated.

What was measured:
[1] = target: T1, OCT1 (Homo sapiens, UniProt O15245); test: Inhibition of mescaline uptake by OCT1; format: in vitro ADME; parameters: expressed in transfected cells; conditions: 1 mM MPP^+; compared with empty vector-transfected cells
T1 sequence (O15245 1-554): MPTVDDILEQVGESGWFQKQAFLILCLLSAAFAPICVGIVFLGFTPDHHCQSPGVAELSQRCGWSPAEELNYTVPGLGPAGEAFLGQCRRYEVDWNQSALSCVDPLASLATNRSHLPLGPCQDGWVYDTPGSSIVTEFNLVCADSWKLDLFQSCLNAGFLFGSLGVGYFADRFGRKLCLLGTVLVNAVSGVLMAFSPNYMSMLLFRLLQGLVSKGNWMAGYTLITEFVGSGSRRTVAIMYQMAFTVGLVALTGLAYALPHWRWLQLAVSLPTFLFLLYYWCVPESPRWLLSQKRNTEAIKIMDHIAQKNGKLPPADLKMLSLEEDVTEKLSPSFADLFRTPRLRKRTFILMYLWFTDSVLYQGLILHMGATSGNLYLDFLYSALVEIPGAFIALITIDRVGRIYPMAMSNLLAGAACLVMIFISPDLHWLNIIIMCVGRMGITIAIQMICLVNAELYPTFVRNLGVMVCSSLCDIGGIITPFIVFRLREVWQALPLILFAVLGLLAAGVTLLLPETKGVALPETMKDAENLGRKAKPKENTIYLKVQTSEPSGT

[2] = target: T2, OCT2 (Homo sapiens, UniProt O15244); test: Screening of cellular uptake at 1 µM, OCT2-overexpressing HEK293 cells over empty vector control cells; conditions: 2 min
T2 sequence (O15244 1-555 S270A): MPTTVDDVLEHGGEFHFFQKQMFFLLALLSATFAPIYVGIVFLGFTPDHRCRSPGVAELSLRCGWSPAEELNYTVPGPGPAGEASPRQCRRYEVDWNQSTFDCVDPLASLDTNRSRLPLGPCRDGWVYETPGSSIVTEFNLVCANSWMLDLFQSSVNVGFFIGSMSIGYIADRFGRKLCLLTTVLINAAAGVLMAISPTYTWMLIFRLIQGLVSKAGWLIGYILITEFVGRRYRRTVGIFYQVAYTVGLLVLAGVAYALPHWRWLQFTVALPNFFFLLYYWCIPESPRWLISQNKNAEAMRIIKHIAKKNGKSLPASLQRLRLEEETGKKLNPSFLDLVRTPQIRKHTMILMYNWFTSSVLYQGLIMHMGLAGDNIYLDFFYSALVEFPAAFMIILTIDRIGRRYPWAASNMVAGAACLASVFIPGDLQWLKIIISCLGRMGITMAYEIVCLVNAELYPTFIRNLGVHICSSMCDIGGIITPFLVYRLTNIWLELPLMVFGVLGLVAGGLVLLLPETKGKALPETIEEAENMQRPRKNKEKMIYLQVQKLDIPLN
Text: (§1) Koepsell and Gorbulev (University of Würzburg, Germany).
(§2) Eighteen psychostimulants and hallucinogens were initially screened for their potential to be substrates for different polyspecific OCTs and high-affinity monoamine neurotransmitter transporters (Figure 3), as well as for the efflux transporter MATE2-K (Supplementary Figure S1).

[3] = target: NET (Homo sapiens, UniProt P23975); test: Screening of cellular uptake at 1 µM, NET-overexpressing HEK293 cells over empty vector control cells; conditions: 2 min
Experimental: (§3) The HEK293 cells were cultered in DMEM medium supplemented with 10% (v/v) fetal bovine serum as well as penicillin (100 U/ml) and streptomycin (100 μg/ml) obtained from Thermo Fisher Scientific (Darmstadt, Germany). Cells were seeded on 12-well plates coated with poly-D-lysine (Sigma-Aldrich, Taufkirchen, Germany) 48 h before the transport experiments and incubated at 37°C, 95% relative humidity, and 5% CO2. […] All cell lines were washed with 37°C HBSS+ and subsequently incubated with the pre-warmed substrate in HBSS+ at 37°C. The time points for measuring substrate uptake were 1 min for MATE2-K and 2 min for the other SLCs. […] The reaction was stopped by adding ice-cold HBSS+, and the cells were washed twice with ice-cold HBSS+ before lysis with 80% acetonitrile (LGC Standards, Wesel, Germany) including an internal standard. Subsequently, the intracellular substrate accumulation was determined using LC-MS/MS.
(§4) Intracellular accumulation was measured by HPLC-MS/MS using a Shimadzu Nexera HPLC system with a LC-30AD pump, a SIL-30AC autosampler, a CTO-20AC column oven, and a CBM-20A controller (Shimadzu, Kyoto, Japan). […] Peak integration and quantification of the analytes was done using the Analyst software (Version 1.6.2, AB SCIEX, Darmstadt, Germany) and determined by simultaneous measurement of standard curves with known concentrations.

[4] = target: T3, OCT2 variant A270S (Homo sapiens, UniProt O15244); test: Concentration-dependent transport by OCT2 variant A270S in HEK293 cells
T3 sequence (O15244 1-555): T2 sequence (O15244 1-555 S270A) with A270S

[5] = target: T4, wild-type OCT2 (Homo sapiens, UniProt O15244); test: Concentration-dependent transport by wild-type OCT2 in HEK293 cells
T4 sequence (O15244 1-555 S270A): T2 sequence (O15244 1-555 S270A)

[6] = target: T5, DAT (Homo sapiens, UniProt Q01959); test: Concentration-dependent transport by DAT in HEK293 cells; conditions: DAT versus NET
[7] = target: T5, DAT; test: Screening of cellular uptake at 1 µM, DAT-overexpressing HEK293 cells over empty vector control cells; conditions: 2 min
Experimental: as §3, §4

[8] = four healthy volunteers; ref Toennes and Kauert, 2002; www.dosing.de and www.drugbank.ca; cited from earlier work
[9] = target: T1, OCT1; test: Screening of cellular uptake at 1 µM, OCT1-overexpressing HEK293 cells over empty vector control cells; conditions: 2 min
Text: as §1, §2

[10] = target: T6, OCT3 (Homo sapiens, UniProt O75751); test: Screening of cellular uptake at 1 µM, OCT3-overexpressing HEK293 cells over empty vector control cells; format: in vitro ADME; conditions: 2 min
T6 construct: Koepsell and Gorbulev (University of Würzburg); host or cells: HEK293
T6 sequence (O75751 1-556): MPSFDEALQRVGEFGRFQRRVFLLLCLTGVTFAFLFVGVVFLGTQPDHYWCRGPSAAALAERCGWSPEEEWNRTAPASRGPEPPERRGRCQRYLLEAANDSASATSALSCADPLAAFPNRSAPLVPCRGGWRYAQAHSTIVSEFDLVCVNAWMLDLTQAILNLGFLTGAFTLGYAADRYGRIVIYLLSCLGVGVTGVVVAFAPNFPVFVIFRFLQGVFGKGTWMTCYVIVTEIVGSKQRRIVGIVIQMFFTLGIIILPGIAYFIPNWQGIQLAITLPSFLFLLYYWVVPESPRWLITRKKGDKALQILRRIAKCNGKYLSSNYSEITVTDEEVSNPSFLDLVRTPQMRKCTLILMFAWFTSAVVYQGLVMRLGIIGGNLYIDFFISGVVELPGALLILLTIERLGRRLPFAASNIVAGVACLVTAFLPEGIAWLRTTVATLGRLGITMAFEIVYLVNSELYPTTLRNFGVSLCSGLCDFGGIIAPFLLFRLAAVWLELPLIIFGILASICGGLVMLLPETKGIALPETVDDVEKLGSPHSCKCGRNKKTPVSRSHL
Text: as §1, §2

[11] = target: SERT (Homo sapiens, UniProt P31645); test: Screening of cellular uptake at 1 µM, SERT-overexpressing HEK293 cells over empty vector control cells; format: in vitro ADME; conditions: 2 min
[12] = target: T7, OCT1*1 (WT) (Homo sapiens, UniProt O15245); conditions: net transport, 2 min
T7 sequence (O15245 1-554): T1 sequence (O15245 1-554)
Experimental: (§5) The cells were kept in culture for no more than 30 passages.
(§6) The HEK293 cells were cultered in DMEM medium supplemented with 10% (v/v) fetal bovine serum as well as penicillin (100 U/ml) and streptomycin (100 μg/ml) obtained from Thermo Fisher Scientific (Darmstadt, Germany). Cells were seeded on 12-well plates coated with poly-D-lysine (Sigma-Aldrich, Taufkirchen, Germany) 48 h before the transport experiments and incubated at 37°C, 95% relative humidity, and 5% CO2. Cell lines overexpressing MATE2-K were incubated with 30 mM NH4Cl in HBSS+ (10 mM HEPES in HBSS, pH 7.4; Thermo Fisher Scientific, Darmstadt, Germany) for 30 min prior to the assay to invert the direction of transport. All cell lines were washed with 37°C HBSS+ and subsequently incubated with the pre-warmed substrate in HBSS+ at 37°C. […] Subsequently, the intracellular substrate accumulation was determined using LC-MS/MS.
(§7) Intracellular accumulation was measured by HPLC-MS/MS using a Shimadzu Nexera HPLC system with a LC-30AD pump, a SIL-30AC autosampler, a CTO-20AC column oven, and a CBM-20A controller (Shimadzu, Kyoto, Japan). […] Peak integration and quantification of the analytes was done using the Analyst software (Version 1.6.2, AB SCIEX, Darmstadt, Germany) and determined by simultaneous measurement of standard curves with known concentrations. […]

[13] = target: T8, OCT1*3 (R61C) (Homo sapiens, UniProt O15245, R61C)
T8 sequence (O15245 1-554 R61C): T1 sequence (O15245 1-554) with R61C
Experimental: as §5, §6, §7

[14] = target: T9, MATE2-K (Homo sapiens, UniProt Q86VL8); test: Screening of cellular uptake at 1 µM, MATE2-K-overexpressing HEK293 cells over empty vector control cells; format: in vitro ADME; conditions: 1 min
T9 construct: expressed in transfected cells
Text: as §1, §2

[15] = target: T10, OCT1*6 (M420del, C88R) (Homo sapiens, UniProt O15245, C88R/DEL420-420)
T10 sequence (O15245 with tags, fused parts or gaps C88R/DEL420-420): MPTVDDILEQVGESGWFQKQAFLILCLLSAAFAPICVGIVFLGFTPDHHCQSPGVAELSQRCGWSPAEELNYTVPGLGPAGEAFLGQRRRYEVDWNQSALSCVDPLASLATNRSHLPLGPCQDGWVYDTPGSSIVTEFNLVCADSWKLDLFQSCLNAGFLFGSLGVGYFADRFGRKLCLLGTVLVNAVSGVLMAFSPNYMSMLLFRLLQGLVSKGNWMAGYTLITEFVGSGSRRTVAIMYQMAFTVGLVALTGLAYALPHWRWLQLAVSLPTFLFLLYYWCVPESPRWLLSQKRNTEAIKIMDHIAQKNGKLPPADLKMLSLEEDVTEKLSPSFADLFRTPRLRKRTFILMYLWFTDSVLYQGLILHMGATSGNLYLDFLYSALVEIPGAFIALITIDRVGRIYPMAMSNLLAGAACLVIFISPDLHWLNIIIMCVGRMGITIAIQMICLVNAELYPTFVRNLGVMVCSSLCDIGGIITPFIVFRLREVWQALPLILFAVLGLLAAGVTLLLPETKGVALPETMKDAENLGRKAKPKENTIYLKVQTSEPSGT
Experimental: as §5
The HEK293 cells were cultered in DMEM medium supplemented with 10% (v/v) fetal bovine serum as well as penicillin (100 U/ml) and streptomycin (100 μg/ml) obtained from Thermo Fisher Scientific (Darmstadt, Germany). Cells were seeded on 12-well plates coated with poly-D-lysine (Sigma-Aldrich, Taufkirchen, Germany) 48 h before the transport experiments and incubated at 37°C, 95% relative humidity, and 5% CO2. Cell lines overexpressing MATE2-K were incubated with 30 mM NH4Cl in HBSS+ (10 mM HEPES in HBSS, pH 7.4; Thermo Fisher Scientific, Darmstadt, Germany) for 30 min prior to the assay to invert the direction of transport. All cell lines were washed with 37°C HBSS+ and subsequently incubated with the pre-warmed substrate in HBSS+ at 37°C. The time points for measuring substrate uptake were 1 min for MATE2-K and 2 min for the other SLCs. […] It was assumed to be linear for the other transporters as well, based on previous experience with these expression systems. […] Subsequently, the intracellular substrate accumulation was determined using LC-MS/MS.
as §4
For the screenings, cellular uptake measured in cell lines overexpressing the respective transporter was divided by the uptake measured in an empty vector control cell line to calculate normalised ratios to enable comparisons between test compounds. For studying transport kinetics, the net transport mediated by the overexpressed transporters was calculated by subtracting the cellular uptake measured in an empty vector control cell line from the uptake in cell lines overexpressing the respective transporter. […]

T5 sequence (Q01959 whole entry): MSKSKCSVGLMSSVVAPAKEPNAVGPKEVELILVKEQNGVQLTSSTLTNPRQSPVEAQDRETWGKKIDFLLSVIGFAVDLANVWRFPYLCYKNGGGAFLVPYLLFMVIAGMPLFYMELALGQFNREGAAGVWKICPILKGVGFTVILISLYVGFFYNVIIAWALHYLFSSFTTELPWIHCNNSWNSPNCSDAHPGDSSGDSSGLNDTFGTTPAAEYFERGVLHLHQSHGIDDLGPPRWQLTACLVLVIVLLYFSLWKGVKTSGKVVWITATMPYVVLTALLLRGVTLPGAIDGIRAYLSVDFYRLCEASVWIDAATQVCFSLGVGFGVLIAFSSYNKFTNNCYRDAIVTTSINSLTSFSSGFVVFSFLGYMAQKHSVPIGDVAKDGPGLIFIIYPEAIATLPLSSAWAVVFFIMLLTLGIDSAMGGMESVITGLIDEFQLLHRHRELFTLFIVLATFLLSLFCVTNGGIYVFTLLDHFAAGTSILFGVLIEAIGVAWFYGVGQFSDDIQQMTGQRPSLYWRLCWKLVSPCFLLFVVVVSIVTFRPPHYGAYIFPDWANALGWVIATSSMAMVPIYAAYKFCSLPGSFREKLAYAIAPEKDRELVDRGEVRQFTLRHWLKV
Chain of NET (P23975 whole entry): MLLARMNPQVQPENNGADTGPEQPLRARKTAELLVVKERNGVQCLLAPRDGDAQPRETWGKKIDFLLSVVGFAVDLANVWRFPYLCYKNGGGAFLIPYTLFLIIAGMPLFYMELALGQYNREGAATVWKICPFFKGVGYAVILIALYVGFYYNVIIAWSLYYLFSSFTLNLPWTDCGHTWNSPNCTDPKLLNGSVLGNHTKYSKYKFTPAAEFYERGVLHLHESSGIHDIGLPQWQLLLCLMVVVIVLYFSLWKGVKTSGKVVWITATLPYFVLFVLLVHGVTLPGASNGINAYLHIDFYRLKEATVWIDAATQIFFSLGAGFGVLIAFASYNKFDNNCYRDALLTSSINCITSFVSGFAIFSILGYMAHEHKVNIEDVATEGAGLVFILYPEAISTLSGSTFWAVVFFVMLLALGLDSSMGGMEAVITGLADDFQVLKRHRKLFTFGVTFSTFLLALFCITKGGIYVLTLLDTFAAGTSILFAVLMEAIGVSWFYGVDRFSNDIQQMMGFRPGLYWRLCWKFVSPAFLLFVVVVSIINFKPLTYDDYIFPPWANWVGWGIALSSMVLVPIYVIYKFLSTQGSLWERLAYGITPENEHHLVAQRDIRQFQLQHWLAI
Chain of SERT (P31645 whole entry): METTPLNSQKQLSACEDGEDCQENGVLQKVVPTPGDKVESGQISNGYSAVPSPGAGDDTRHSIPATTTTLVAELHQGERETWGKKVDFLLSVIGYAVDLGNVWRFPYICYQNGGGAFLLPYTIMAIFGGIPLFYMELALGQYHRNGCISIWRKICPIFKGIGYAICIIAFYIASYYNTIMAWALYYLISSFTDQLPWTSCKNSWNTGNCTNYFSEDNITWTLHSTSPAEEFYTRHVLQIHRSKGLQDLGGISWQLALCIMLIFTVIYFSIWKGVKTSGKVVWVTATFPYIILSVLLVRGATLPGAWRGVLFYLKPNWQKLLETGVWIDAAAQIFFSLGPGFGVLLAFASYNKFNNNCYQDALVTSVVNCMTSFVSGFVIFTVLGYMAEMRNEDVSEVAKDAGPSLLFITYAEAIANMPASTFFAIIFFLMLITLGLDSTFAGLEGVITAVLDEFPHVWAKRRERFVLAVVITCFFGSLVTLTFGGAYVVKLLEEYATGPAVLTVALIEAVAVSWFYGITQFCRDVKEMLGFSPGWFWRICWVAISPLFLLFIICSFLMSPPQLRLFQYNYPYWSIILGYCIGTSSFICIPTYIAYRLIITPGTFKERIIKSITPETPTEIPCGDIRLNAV
T9 sequence (Q86VL8 1-566 isoform Q86VL8-3): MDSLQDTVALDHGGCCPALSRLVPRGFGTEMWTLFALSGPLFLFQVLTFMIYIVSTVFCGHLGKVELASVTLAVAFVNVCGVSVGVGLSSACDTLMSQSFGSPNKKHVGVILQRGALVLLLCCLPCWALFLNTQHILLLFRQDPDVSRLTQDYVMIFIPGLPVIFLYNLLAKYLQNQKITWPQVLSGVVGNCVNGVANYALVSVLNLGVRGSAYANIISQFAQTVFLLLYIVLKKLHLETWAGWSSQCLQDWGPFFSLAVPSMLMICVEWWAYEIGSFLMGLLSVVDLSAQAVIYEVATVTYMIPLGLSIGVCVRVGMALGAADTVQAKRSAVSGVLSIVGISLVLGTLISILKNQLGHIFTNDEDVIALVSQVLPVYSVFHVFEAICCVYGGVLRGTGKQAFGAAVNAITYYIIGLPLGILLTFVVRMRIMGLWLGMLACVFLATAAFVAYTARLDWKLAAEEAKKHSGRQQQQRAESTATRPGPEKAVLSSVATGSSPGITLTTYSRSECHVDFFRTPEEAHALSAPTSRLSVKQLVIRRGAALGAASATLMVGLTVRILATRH

| Structure (SMILES) | inhibition of mescaline uptake by OCT1 [1] | ratio of uptake in transporter-transfected cells over empty vector control cells [2] | ratio of uptake in transporter-transfected cells over empty vector control cells [3] | vmax ([4]; OCT2 A270S) | Km at 2 min ([4]; human, pH 7.4) [µM] | vmax ([5]; OCT2 WT) | Km at 2 min ([5]; human, pH 7.4) [µM] | Km higher for DAT compared with NET [6] [fold] | vmax higher for DAT compared with NET [6] [fold] | ratio of uptake in transporter-transfected cells over empty vector control cells [7] | excreted unchanged in urine [8] | ratio of uptake in transporter-transfected cells over empty vector control cells [9] | ratio of uptake in transporter-transfected cells over empty vector control cells [10] | ratio of uptake in transporter-transfected cells over empty vector control cells [11] | vmax [12] | vmax [13] | ratio of uptake in transporter-transfected cells over empty vector control cells [14] | transport activity ([15]; OCT1*6) | Km ([15]; OCT1*6 (M420del, C88R)) | vmax ([15]; OCT1*6 (M420del, C88R)) |
| --- | --- | --- | --- | --- | --- | --- | --- | --- | --- | --- | --- | --- | --- | --- | --- | --- | --- | --- | --- | --- |
| C[n+]1ccc(-c2ccccc2)cc1 [MPP^+, 1-methyl-4-phenylpyridinium] | completely inhibited |  |  |  |  |  |  |  |  |  |  |  |  |  |  |  |  |  |  |  |
| C[C@H](N)[C@@H](O)c1ccccc1 [Cathine, (+)-norpseudoephedrine] |  | 4- to 6 fold | 4 fold | 505.4 (± 168.1) pmol × mg protein^-1 × min^-1 | 58.4 | 570.1 (± 94.3) pmol × mg protein^-1 × min^-1 | 46 ± 17.3 | 21 | 10 | 7 fold | 46–65% |  |  |  |  |  |  |  |  |  |
| COc1cc(CCN)cc(OC)c1OC [Mescaline] |  |  | not transported much |  |  |  |  |  |  | not transported much |  | more than 8 fold | not transported much | not transported much | 642 pmol × mg protein^−1 × min^−1 and 642 ± 57 pmol × mg protein^−1 × min^−1 | 391 ± 266 pmol × mg protein^−1 × min^−1 | not transported much | very low transport activity | Not determinable | Not determinable |
